Values after ≈ are worked out from the molar mass of the structure shown. Values joined by “and” are separate entries in the source; they are usually repeats but may differ in a detail not shown here. Equal values may be shown once. Read-outs that look alike come from different tables or passages of the source.
Key:
[1] = system: CDC1551(rv2390c′::GFP) reporter Mtb strain, response to high [Cl−]; assay: microbe, parasite or virus in culture; assay type: cell-based, Mycobacterium tuberculosis
[2] = Kinetic aqueous solubility; assay type: physicochemical; details: pH 7.4 phosphate buffered saline; read-out: kinetic aqueous solubility (S)
Procedure: (§1) Assays examining mouse and human liver microsomal stability, kinetic aqueous solubility, mouse and human plasma protein binding and stability, and human cytochrome P450 inhibition characteristics of the compounds were run by BioDuro (San Diego, CA), using standard protocols as previously described [37]. hERG inhibition assays were also performed by BioDuro.

[3] = Mouse liver microsomal stability; assay type: in vitro ADME; details: mouse liver microsomes; read-out: half-life (t1/2) in mouse liver microsomes
Procedure: as §1

[4] = Pharmacokinetic assay, single oral dose in CD-1 mice; assay type: in vivo; details: female; for AUC(0-t): mouse, plasma, CD-1 mice, read-out: plasma AUC0–5h
Procedure: Blood samples were collected in K2EDTA-coated tubes predose, 0.5, 1, 3, and 5 hours post-dose, placed on ice, and centrifuged to recover plasma. The recovered plasma was kept at −80°C as needed prior to analysis, which was performed as previously described. In brief, a Sciex Applied Biosystems Qtrap 4000 triple-quadrupole mass spectrometer coupled to an Agilent 1260 HPLC system was used for HPLC coupled to tandem mass spectrometry (LC–MS/MS) quantitative analysis of the samples, with chromatography attained using an Agilent Zorbax SB-C8 column (2.1 × 30 mm; particle size, 3.5 μm) and a reverse-phase gradient elution. The aqueous mobile phase consisted of Milli-Q deionized water with 0.1% formic acid (A), while the organic mobile phase was 0.1% formic acid in acetonitrile (B). The gradient setup was as follows: 5% to 90% B over 2 minutes, 1 minute at 90% B, then an immediate drop to 5% B and an additional 1 minute at 5% B. Quantification of molecules was carried out via multiple reaction monitoring of parent/daughter transitions in electrospray positive ionization mode, and sample analyses accepted if quality control and standard samples had concentrations within 20% of the nominal concentration. Preparation of compounds for generation of standard curves and quality control spiking solutions were performed as previously described. Data were processed using Analyst software (Version 1.6.2; Applied Biosystems Sciex, Framingham, MA).

[5] = Human plasma protein binding; assay type: in vitro ADME
Human plasma stability = assay type: in vitro ADME; details: 5-h incubation
Procedure: as §1

Mtb [6] = assay: Mouse Mtb infection, C3HeB/FeJ model, oral C6; assay type: in vivo, C3HeB/FeJ mice; details: for CFU/ml: individual values
Procedure: C3HeB/FeJ wild-type mice (The Jackson Laboratory) were infected intranasally with 10^3 CFUs of Mtb (35 μl), under light anesthesia with 2% isoflurane. […] The next day, the suspension was homogenized by bead beating with 5 mm steel beads in a TOMY microtube mixer (2 × 20 seconds) and stored at 4°C until use. […] Administration began at 2 or 6 weeks post-infection as indicated. At time of sacrifice, the left lobe and accessory right lobe of the lung were homogenized in PBS + 0.05% Tween 80 and serial dilutions plated on 7H10 agar plates with 100 μg/ml cycloheximide for bacterial load determination. The remaining 3 right lobes were fixed in 4% PFA in PBS. One lobe was used for histological analysis by standard hematoxylin and eosin (H&E) staining (Tufts Comparative Pathology Services). A Nikon Eclipse E400 with a SPOT insight color digital camera was used to image the histology samples.

Mtb [7] = assay: Mtb growth assay in cholesterol medium (OD600); details: for OD600: Fig. 2G
Excerpt: (§2) Bacterial growth was tracked by measuring OD600 every 3 days for 12 days. […] Bacterial growth was tracked by measurement of OD600 every 3 days over 12 days.

Mtb [8] = assay: Mtb growth assay in standard 7H9 medium (OD600); details: for OD600: Fig. 2F
Excerpt: as §2

J774 cells = assay: Intracellular drug accumulation assay in J774 cells (LC-MS); details: 24 hours

SMILES: CCSc1ncc(CN2CCN(c3nc4ccccc4o3)CC2)cn1 [C6, 2-(4-((2-(ethylthio)pyrimidin-5-yl)methyl)piperazin-1-yl)benzo[d]oxazole]
- NPA - rv2390c'::GFP, average ([1]; 0.0390625 µM, Fig 1C): 83.3%
- NPA - rv2390c'::GFP, average ([1]; 0.078125 µM, Fig 1C): 86.0333%
- NPA - rv2390c'::GFP, average ([1]; 0.15625 µM, Fig 1C): 80.7667%
- NPA - rv2390c'::GFP, average ([1]; 0.3125 µM, Fig 1C): 92.0333%
- NPA - rv2390c'::GFP, average ([1]; 0.625 µM, Fig 1C): 91.4667%
- NPA - rv2390c'::GFP, average ([1]; 1.25 µM, Fig 1C): 105.667%
- NPA - rv2390c'::GFP, average ([1]; 2.5 µM, Fig 1C): 116.333%
- NPA - rv2390c'::GFP, average ([1]; 5 µM, Fig 1C): 113%
- NPA - rv2390c'::GFP, average ([1]; 10 µM, Fig 1C): 126.667%
- NPA - rv2390c'::GFP, average ([1]; 20 µM, Fig 1C): 131%
- activity at 10 µM ([1]; Mycobacterium tuberculosis, 144 h, pH 6.4, […], DMSO positive control = 100%, read-out: Primary screen rv2390c'::GFP NPA%): 164%
- activity at 10 µM ([1]; Mycobacterium tuberculosis, 144 h, 10 µM, pH 6.4, 250 mM NaCl, 6 days, read-out: rv2390c'::GFP validation assay NPA% at 10 µM compound): 127 ± 1.5%
- activity at 20 µM ([1]; Mycobacterium tuberculosis, 144 h, 20 µM, pH 6.4, 250 mM NaCl, 6 days, read-out: rv2390c'::GFP validation assay NPA% at 20 µM compound): 131 ± 3.6%
- AC50 ([1]; Mycobacterium tuberculosis, 144 h, pH 6.4, 250 mM NaCl, 6 days, Fig 1C, read-out: AC50 (activatory concentration, 50%), rv2390c′::GFP): 1.8 µM
- solubility kinetic [2]: 76.4 µM (≈ 27.2 µg/mL)
- half-life [3]: 48.5 min
- Kp at 5 h ([4]; CD-1, mouse, 5-hour partitioning between plasma and lung, 25 mg/kg po, read-out: Clung/Cplasma): 0.86
- AUC(0-t) ([4]; single 5 mg/kg po dose): 5480 ng·h/mL
- AUC(0-t) ([4]; single 25 mg/kg po dose): 25700 ng·h/mL
- fraction unbound [5]: 0.008
- remaining at 5 h (Human plasma stability): 94.6%
- Lung bacterial load, short-term infection model (Mtb [6]; 250 mg/kg oral gavage 5 times a week for 2 weeks, started 2 weeks post-infection): significantly inhibited Mtb growth
- Lung bacterial load, longer-term infection model (Mtb [6]; 250 mg/kg oral gavage for 2 or 4 weeks, started 6 weeks post-infection): significant decrease in bacterial load
- Lung histology, short-term infection model (Mtb [6]; 250 mg/kg, 2-week treatment from 2 weeks post-infection): less cellular infiltration
- Lung histopathology, longer-term infection model (Mtb [6]; 250 mg/kg, 2 or 4 weeks treatment from 6 weeks post-infection): improved histopathology
- CFU/ml (Mtb [6]; Fig. 4A, 4 weeks (pre-treatment 2 weeks)): 5260000 CFU/ml and 1940000 CFU/ml and 7340000 CFU/ml and 338000 CFU/ml and 3180000 CFU/ml and 1920000 CFU/ml and 1820000 CFU/ml and 13560000 CFU/ml
- CFU/ml (Mtb [6]; Fig. 4C, 8 weeks (pre-treatment 6 weeks)): 38000 CFU/ml and 860000 CFU/ml and 9200000 CFU/ml and 3340000 CFU/ml and 4100000 CFU/ml and 2340000 CFU/ml and 68000 CFU/ml and 304000 CFU/ml and 270000000 CFU/ml and 3980000 CFU/ml and 234000 CFU/ml and 64000 CFU/ml and 21800 CFU/ml and 62000 CFU/ml
- CFU/ml (Mtb [6]; Fig. 4C, 10 weeks (pre-treatment 6 weeks)): 338000 CFU/ml and 29000 CFU/ml and 2660 CFU/ml and 228000 CFU/ml and 188000 CFU/ml and 43000000 CFU/ml and 112000 CFU/ml and 17800000 CFU/ml and 926000 CFU/ml and 42800000 CFU/ml and 132000 CFU/ml and 118000 CFU/ml and 720000 CFU/ml
- Inhibition of Mtb growth in cholesterol media (Mtb [7]; 10 μM, OD600 over 12 days): inhibited Mtb growth
- OD600 (Mtb [7]; day 3, average): 0.06
- OD600 (Mtb [7]; day 3, individual replicates): 0.06
- OD600 (Mtb [7]; day 6, average): 0.09333
- OD600 (Mtb [7]; day 6, individual replicates): 0.1 (2×) and 0.08
- OD600 (Mtb [7]; day 9, average): 0.12
- OD600 (Mtb [7]; day 9, individual replicates): 0.12 and 0.1 and 0.14
- OD600 (Mtb [7]; day 12, average): 0.1533
- OD600 (Mtb [7]; day 12, individual replicates): 0.14 (2×) and 0.18
- Effect on Mtb growth in standard 7H9 media (Mtb [8]; 10 μM, OD600 over 12 days): no effect
- OD600 (Mtb [8]; day 3, average): 0.1933
- OD600 (Mtb [8]; day 3, individual replicates): 0.2 (2×) and 0.18
- OD600 (Mtb [8]; day 6, average): 0.3733
- OD600 (Mtb [8]; day 6, individual replicates): 0.38 (2×) and 0.36
- OD600 (Mtb [8]; day 9, average): 0.4933
- OD600 (Mtb [8]; day 9, individual replicates): 0.5 (2×) and 0.48
- OD600 (Mtb [8]; day 12, average): 0.6333
- OD600 (Mtb [8]; day 12, individual replicates): 0.64 (2×) and 0.62
- Intracellular accumulation in J774 cells (J774 cells): dose-dependent accumulation

From PMC8351955, “Targeting Mycobacterium tuberculosis response to environmental cues for the development of effective antitubercular drugs” (PLoS Biology, 2021)
